Measurements as given in US20090269770A1, “METHODS FOR EVALUATION PROGNOSIS AND FOLLOW-UP OF DRUG TREATMENT OF PSYCHIATRIC DISEASES OR DISORDERS” (priority 2008, published 2009).
Where “and” joins values, the source holds several entries; their conditions need not be identical. Equal entries are not always repeated. Entries after “also recorded” stand apart in the source; their conditions may differ.

Legend:
[1] = test system: PMC from schizophrenic patients; experiment: GPCR cDNA array (GEArray Q series) of PMC gene expression, fluvoxamine augmentation; format: in vivo, human; design: key to Gene expression change CCR5 (X91492), divided by week 0 / Gene expression change CCR7 (L31581), divided by week 0 / Gene expression change CCRL1 (AF110640), divided by week 0 / Gene expression change CRL1 (U79527), divided by week 0 / Gene expression change IL8Rα (L19591), divided by week 0 / Gene expression change RGS7 (BC022009), divided by week 0 / Gene expression change 5-HT2A (X57830), divided by week 0 / Gene expression change 5-HT7 (L21195), divided by week 0 / Gene expression change CCR1 (D10925), divided by week 0: D—down regulation (<0.7); U—up regulation (>1.3); nc—No change; nd—Not detected; settings: for Gene expression change 5-HT2A (X57830), divided by week 0 / Gene expression change 5-HT7 (L21195), divided by week 0 / Gene expression change CCR1 (D10925), divided by week 0 / Gene expression change CCR5 (X91492), divided by week 0 / Gene expression change CCR7 (L31581), divided by week 0 / Gene expression change CCRL1 (AF110640), divided by week 0 / Gene expression change CRL1 (U79527), divided by week 0 / Gene expression change IL8Rα (L19591), divided by week 0 / Gene expression change RGS7 (BC022009), divided by week 0: PMC, one cell per patient I-VI
Procedure: Patients suffering from chronic schizophrenia (DSM IV criteria) with at least 2 years of illness (range 2-17 years) and persistent negative symptoms were chosen from an Israeli mental health center, as shown in Table 1. To qualify for inclusion in the study, these patients were required to be on constant antipsychotic medication for at least 6 months prior to the study and on an unchanged dose for at least 4 weeks before entry.
(§1) Fluvoxamine (100 mg/day) was added in an open study format to the antipsychotic treatment, which remained steady. Clinical state was assessed by psychiatrists using validated rating scales for negative (SANS) and positive (SAPS) symptoms (Silver et al., 2003) prior to fluvoxamine treatment and then weekly until the end of the trial period. Total SANS scores and summary scores for […] blunting, alogia, anhedonia and […] factors were the outcome measures. Extrapyramidal symptoms were assessed with the Simpson-Angus Scale (SAS) for extrapyramidal side effects (Simpson and Angus, 1970). Blood samples were taken at baseline (day 0), before addition of fluvoxamine, after 3 weeks of combined treatment, a time when the initial clinical effect is expected to be seen (Silver et al., 2003), and after 6 weeks of the combined treatment.
Blood samples (40 ml) from patients were collected in EDTA-coated tubes in order to prevent coagulation, and transported in ice to the laboratory for further processing. Each 15 ml of blood was completed to 40 ml with phosphate buffered saline (PBS) and gently mixed. PMC were isolated according to Ficoll protocol (Sigma, USA). In short, after addition of Ficoll reagent, the tubes were centrifuged (400 g, 30 min), and the interphase was transferred to a new tube, mixed with 100 ml PBS and centrifuged (400 g, 10 min). The supernatant was discarded and the pellet containing the PMC was washed 3 times with PBS (400 g, 10 min). TriReagent (Sigma, USA) was added to the pellet and left on ice for 15 min.
[…] chloroform was added to 1 ml of sample in TriReagent and the suspension was centrifuged (12,000 g, 20 min, 4° C.). After precipitation with isopropanol, the RNA pellet was washed twice with 70% ethanol (7,500 g, 10 min), followed by one wash with 96% ethanol (12,000 g, 10 min) and resuspended in diethylpyrocarbonate (DEPC)-treated water. RNA sample concentrations were determined by UV spectrophotometry at 260 nm (average OD260/2801.9-2). RNA purity was determined by the 260/230 and 260/280 ratios. RNA integrity was confirmed using gel (1.2% agarose) electrophoresis by direct visualization of 18S and 28S rRNA bands and densitometric analysis.
In the next step, gene expression profiles were examined with GEArray™ cDNA membranes, consisting of genes related to G protein-coupled receptor (GPCR) pathways (Q series human G protein-coupled receptor gene array II, SuperArray, Bethesda, Md., USA). Each membrane consists of 100 human cDNAs fragments associated with GPCR family, including receptors for dopamine (DA), serotonin (5-HT), acetylcholine and epinephrine; receptors for chemokines; GPCR kinases; Mitogen activated protein kinases; and regulators of G-protein signaling (RGS). Hybridization array analysis was performed according to the manufacturer's (SuperArray, Bethesda, Md.) protocol. Total RNA from each patient was reverse transcribed with biotinylated dUTP (Roche Diagnostics, Mannheim, Germany) and a gene specific primer mix (SuperArray, Bethesda, Md.). The probes were hybridized to the membrane and the array image was recorded using X-ray film. Quantitation of the results and analysis was accomplished using the manufacturer Software Package (SuperArray, Bethesda, Md.). The row values from 4 spotted replicates of a gene were averaged, normalized to the median of all intensity values on array and compared to control values, thereby assessing the relative expression level of a given mRNA. […]

schizophrenic patients = experiment: Simpson-Angus Scale (SAS) for extrapyramidal side effects; format: in vivo, human; settings: for Extra-pyramidal side effects score: one line per patient I-VI
Procedure: as §1

[2] = after 3 weeks or more of the combined treatment
[3] = in at least 4 out of the 6 subjects after 3 weeks or more of the combined treatment

COCCCC/C(=N\OCCN)c1ccc(C(F)(F)F)cc1 [fluvoxamine]
expression level of CCR5 [1, 2]: increase | transcript encoding 5-HR7 [1, 2]: reduced expression level | transcript encoding 5-HT2A [1, 2]: reduced expression level | transcript encoding RGS7 [1, 2]: reduced expression level | expression level of CCR1 [1, 3]: decrease | expression level of CCRL1 [1, 3]: decrease | expression level of CMKLR1 [1, 3]: decrease | expression level of IL8Rα [1, 3]: decrease | Gene expression change 5-HT2A (X57830), divided by week 0 ([1]; week 3): D (D—down regulation (<0.7)) (4×) and nc | Gene expression change 5-HT7 (L21195), divided by week 0 ([1]; week 3): D (D—down regulation (<0.7)) (4×) and nc | Gene expression change CCR1 (D10925), divided by week 0 ([1]; week 3): D (D—down regulation (<0.7)) (3×) and nc | Gene expression change CCR5 (X91492), divided by week 0 ([1]; week 3): U (U—up regulation (>1.3)) | Gene expression change CCR7 (L31581), divided by week 0 ([1]; week 3): nc (2×) and D (D—down regulation (<0.7)) (3×) and U (U—up regulation (>1.3)) | Gene expression change CCRL1 (AF110640), divided by week 0 ([1]; week 3): nc (3×) and D (D—down regulation (<0.7)) (3×) | Gene expression change CRL1 (U79527), divided by week 0 ([1]; week 3): D (D—down regulation (<0.7)) (4×) and nc (2×) | Gene expression change IL8Rα (L19591), divided by week 0 ([1]; week 3): D (D—down regulation (<0.7)) (3×) and nc and U (U—up regulation (>1.3)) (2×) | Gene expression change RGS7 (BC022009), divided by week 0 ([1]; week 3): D (D—down regulation (<0.7)) (2×) and nc (3×) and U (U—up regulation (>1.3)) | Gene expression change 5-HT2A (X57830), divided by week 0 ([1]; week 6): nc and D (D—down regulation (<0.7)) (4×) | Gene expression change 5-HT7 (L21195), divided by week 0 ([1]; week 6): D (D—down regulation (<0.7)) (4×) and nc | Gene expression change CCR1 (D10925), divided by week 0 ([1]; week 6): D (D—down regulation (<0.7)); also recorded: U (U—up regulation (>1.3)) | Gene expression change CCR5 (X91492), divided by week 0 ([1]; week 6): U (U—up regulation (>1.3)) and nc (2×) and D (D—down regulation (<0.7)) | Gene expression change CCR7 (L31581), divided by week 0 ([1]; week 6): U (U—up regulation (>1.3)) (3×) and nc (2×) and D (D—down regulation (<0.7)) | Gene expression change CCRL1 (AF110640), divided by week 0 ([1]; week 6): U (U—up regulation (>1.3)) (2×) and nc (2×) and D (D—down regulation (<0.7)) (2×) | Gene expression change CRL1 (U79527), divided by week 0 ([1]; week 6): D (D—down regulation (<0.7)) (4×) and nc and U (U—up regulation (>1.3)) | Gene expression change IL8Rα (L19591), divided by week 0 ([1]; week 6): D (D—down regulation (<0.7)) (4×) and U (U—up regulation (>1.3)) and nc | Gene expression change RGS7 (BC022009), divided by week 0 ([1]; week 6): D (D—down regulation (<0.7)) (4×) and nc (2×) | expression level of CCR7 ([1]; week 6 compared with week 3): increased | expression level of CCRL1 ([1]; week 6 compared with week 3): increased | Extra-pyramidal side effects score (schizophrenic patients; 3 W): 0 (5×) and 6 | Extra-pyramidal side effects score (schizophrenic patients; 6 W): 0 (5×) and 4 | Extra pyramidal side effects change (schizophrenic patients; with augmentation treatment, absent in all, except one patient): did not change significantly
